Laboratory results: ChEMBL document CHEMBL1158869, “Bioactive iridoids and a new lignan from Allamanda cathartica and Himatanthus fallax from the Suriname rainforest” (J Nat Prod, 1997)
Converted amounts (≈) assume the structure as drawn.

Key:
M109 = test: Cytotoxicity against mouse M109 cells; assay type: functional, cell-based
Saccharomyces cerevisiae = test: Antimicrobial activity against yeast Sc7; assay type: functional

Row | SMILES | IC50 (M109) | IC12 (Saccharomyces cerevisiae)
1 | C/C=C1\C(=O)O[C@]23C=C[C@@H]4C(C(=O)OC)=CO[C@H](O[C@@H]12)[C@@H]43 [ISOPLUMERICIN] | 25 µg/mL (≈ 86.1 µM) | 42 µg/mL
2 | C/C=C1/C(=O)O[C@]23C=C[C@@H]4C(C(=O)OC)=CO[C@H](O[C@@H]12)[C@@H]43 [PLUMERICIN] | 100 µg/mL (≈ 345 µM) | 74 µg/mL
